Molecular target: T1, human Nav1.8 (Homo sapiens, UniProt Q9Y5Y9)
T1 construct: expressed in transfected cells; host or cells: HEK293 (HEK293-Nav1.8)
Assay: Nav1.8 sodium channels assay, QPatch 48 HTX electrophysiology in HEK293-Nav1.8 cells
Format: cell-based
Settings: Table 2; HEK293-Nav1.8, QPatch 48 HTX, half inactivation state voltage protocol (V1/2); single run or average of two or more runs; read-out: Nav1.8 pIC50 (converted)
How it was run: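 HEK293 cells co-expressing human Nav1.8, Navβ1 and TREK1 were voltage-clamped on QPatch 48 HTX. The V1/2 protocol ran at 0.07 Hz: hold −100 mV, 20 ms to 0 mV, 8 s at −46 mV, 20 ms at −100 mV, then 20 ms at 0 mV (P2). P2 current was fitted over 6-8 concentrations for IC50, with vehicle wells used to correct for run-down.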

T1 sequence (Q9Y5Y9 whole entry): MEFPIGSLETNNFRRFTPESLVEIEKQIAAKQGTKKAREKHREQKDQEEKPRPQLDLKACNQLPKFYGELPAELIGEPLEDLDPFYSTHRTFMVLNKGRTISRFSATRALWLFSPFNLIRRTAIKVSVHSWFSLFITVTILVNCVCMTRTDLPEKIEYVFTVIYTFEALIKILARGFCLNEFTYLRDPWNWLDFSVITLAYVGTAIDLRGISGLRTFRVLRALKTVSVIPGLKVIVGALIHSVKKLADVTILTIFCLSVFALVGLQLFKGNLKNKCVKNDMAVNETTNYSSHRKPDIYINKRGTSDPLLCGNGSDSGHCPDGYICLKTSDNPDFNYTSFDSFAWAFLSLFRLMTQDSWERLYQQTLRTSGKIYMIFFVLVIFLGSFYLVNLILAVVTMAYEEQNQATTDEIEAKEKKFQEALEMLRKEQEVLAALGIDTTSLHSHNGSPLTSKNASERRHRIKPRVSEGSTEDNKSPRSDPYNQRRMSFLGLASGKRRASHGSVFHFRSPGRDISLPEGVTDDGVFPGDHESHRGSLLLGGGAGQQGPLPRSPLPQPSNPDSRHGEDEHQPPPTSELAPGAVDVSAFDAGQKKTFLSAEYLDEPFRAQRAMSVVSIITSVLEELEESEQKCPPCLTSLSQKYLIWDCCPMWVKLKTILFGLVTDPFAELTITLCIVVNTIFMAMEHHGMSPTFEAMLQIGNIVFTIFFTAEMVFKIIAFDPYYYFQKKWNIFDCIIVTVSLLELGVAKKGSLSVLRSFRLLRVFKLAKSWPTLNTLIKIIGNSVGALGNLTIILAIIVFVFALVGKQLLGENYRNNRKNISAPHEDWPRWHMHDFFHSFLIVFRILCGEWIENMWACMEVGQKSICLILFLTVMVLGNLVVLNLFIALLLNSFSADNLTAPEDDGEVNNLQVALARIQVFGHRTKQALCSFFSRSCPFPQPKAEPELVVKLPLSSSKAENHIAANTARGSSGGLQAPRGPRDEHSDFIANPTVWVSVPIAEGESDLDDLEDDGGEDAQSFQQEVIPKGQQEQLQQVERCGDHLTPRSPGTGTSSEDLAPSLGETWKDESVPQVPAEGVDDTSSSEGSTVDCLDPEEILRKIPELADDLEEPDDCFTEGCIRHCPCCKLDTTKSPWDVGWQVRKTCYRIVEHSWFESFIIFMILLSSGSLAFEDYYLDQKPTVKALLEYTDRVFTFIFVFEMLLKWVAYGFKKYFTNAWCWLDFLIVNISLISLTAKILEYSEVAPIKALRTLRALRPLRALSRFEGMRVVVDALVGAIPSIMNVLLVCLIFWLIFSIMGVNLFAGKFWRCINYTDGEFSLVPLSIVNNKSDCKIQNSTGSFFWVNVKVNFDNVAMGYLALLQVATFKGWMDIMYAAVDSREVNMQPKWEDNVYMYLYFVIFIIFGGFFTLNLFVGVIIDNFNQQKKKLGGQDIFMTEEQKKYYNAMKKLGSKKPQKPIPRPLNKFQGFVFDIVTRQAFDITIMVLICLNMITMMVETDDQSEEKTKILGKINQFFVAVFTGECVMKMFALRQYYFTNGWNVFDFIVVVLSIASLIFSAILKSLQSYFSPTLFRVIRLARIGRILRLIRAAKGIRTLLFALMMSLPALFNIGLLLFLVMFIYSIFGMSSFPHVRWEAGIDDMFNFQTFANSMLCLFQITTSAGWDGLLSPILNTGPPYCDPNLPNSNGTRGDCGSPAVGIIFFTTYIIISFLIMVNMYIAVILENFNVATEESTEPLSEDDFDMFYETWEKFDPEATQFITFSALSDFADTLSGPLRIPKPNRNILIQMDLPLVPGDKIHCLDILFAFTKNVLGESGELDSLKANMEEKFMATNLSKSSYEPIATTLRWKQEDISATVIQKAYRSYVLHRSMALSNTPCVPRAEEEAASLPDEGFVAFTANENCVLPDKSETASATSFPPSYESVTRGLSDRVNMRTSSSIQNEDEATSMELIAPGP
T1 sequence (Q07699 19-218 partner): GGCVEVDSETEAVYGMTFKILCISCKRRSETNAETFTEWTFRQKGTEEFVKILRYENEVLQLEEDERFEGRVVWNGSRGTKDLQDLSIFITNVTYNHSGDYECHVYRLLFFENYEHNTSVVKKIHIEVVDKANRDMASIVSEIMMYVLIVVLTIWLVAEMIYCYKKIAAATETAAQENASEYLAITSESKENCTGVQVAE

- IC50: 1260 nM
SMILES: Cc1cc(F)ccc1N1CN(c2cc[nH]c(=O)c2C)C(=O)c2ccc(C(F)(F)F)cc21 [drawing 312, 1-(4-fluoro-2-methylphenyl)-3-(3-methyl-2-oxo-1,2-dihydropyridin-4-yl)-7-(trifluoromethyl)-2,3-dihydroquinazolin-4(1H)-one]
